Laboratory results as given in patent publication US8449898B2 (priority 2007, dated 2013).
Read-outs that look alike come from different tables or passages of the source.

Columns and labels:
[1] = test system: Phytophthora infestans (the causal agent of tomato late blight); test: whole plant or invertebrate; format: in vivo; conditions: Phytophthora infestans
[2] = test system: Pseudoperonospora cubensis (the causal agent of cucumber downy mildew); test: Test B: cucumber downy mildew, preventive spray on cucumber seedlings; format: in vivo; conditions: Pseudoperonospora cubensis; for pest or weed control at 0.08 µg/mL: component (b) alone 0.08 ppm (Compound 1 0 ppm); for pest or weed control at 0.4 µg/mL: component (b) alone 0.4 ppm (Compound 1 0 ppm); for pest or weed control at 2 µg/mL: component (b) alone 2 ppm (Compound 1 0 ppm); for pest or weed control at 10 µg/mL: component (b) alone 10 ppm (Compound 1 0 ppm); for pest or weed control at 40 µg/mL: component (b) alone 40 ppm (Compound 1 0 ppm); for pest or weed control at 200 µg/mL: component (b) alone 200 ppm (Compound 1 0 ppm)
[3] = read-out: TLB Obsd, component (b) alone, 0.4 ppm
[4] = read-out: TLB Obsd, component (b) alone, 2 ppm
[5] = read-out: TLB Obsd, component (b) alone, 10 ppm
[6] = read-out: TLB Obsd, component (b) alone, 40 ppm
[7] = component (b) alone, 0.4 ppm, read-out: CDM Obsd
[8] = component (b) alone, 2 ppm, read-out: CDM Obsd
[9] = component (b) alone, 10 ppm, read-out: CDM Obsd
[10] = component (b) alone, 40 ppm, read-out: CDM Obsd
[11] = read-out: TLB Obsd (observed effect, tomato late blight), component (b) alone, 2 ppm
[12] = read-out: TLB Obsd (observed effect, tomato late blight), component (b) alone, 10 ppm
[13] = read-out: TLB Obsd (observed effect, tomato late blight), component (b) alone, 40 ppm
[14] = read-out: TLB Obsd, Table D, component (b) alone at 10 ppm
[15] = read-out: TLB Obsd, Table D, component (b) alone at 40 ppm
[16] = Table D, component (b) alone at 10 ppm, read-out: CDM Obsd
[17] = Table D, component (b) alone at 40 ppm, read-out: CDM Obsd
[18] = component (b) alone, 2 ppm, read-out: CDM Obsd (observed effect, cucumber downy mildew)
[19] = component (b) alone, 10 ppm, read-out: CDM Obsd (observed effect, cucumber downy mildew)
[20] = component (b) alone, 40 ppm, read-out: CDM Obsd (observed effect, cucumber downy mildew)
[21] = read-out: TLB Obsd (observed effect, tomato late blight), component (b) alone, 200 ppm
[22] = component (b) alone, 200 ppm, read-out: CDM Obsd (observed effect, cucumber downy mildew)

## Cc1cc(C(F)(F)F)nn1CC(=O)N1CCC(c2nc(C3=NOC4c5ccccc5CCC34)cs2)CC1 (centres unmarked)
other
  melting point: 162 to 165 °C

## O=C(Cn1nc(C(F)(F)F)cc1C(F)(F)F)N1CCC(c2nc(C3=NOC(c4ccccc4)C3)cs2)CC1 (centres unmarked)
other
  melting point: 130 to 133 °C

## COc1ccc(C2CC(c3csc(C4CCN(C(=O)Cn5nc(C(F)(F)F)cc5C)CC4)n3)=NO2)cc1 (centres unmarked)
other
  melting point: 119 to 124 °C

## CCc1cc(C(F)(F)F)nn1CC(=O)N1CCC(c2nc(C3=NOC(c4ccccc4)C3)cs2)CC1 (centres unmarked)
other
  melting point: 128 to 133 °C

## CC(C)CC(C)c1sccc1NC(=O)c1cn(C)nc1C(F)(F)F (centres unmarked) [penthiopyrad]
[1]; read-out: TLB Obsd (disease control rating), Table A, component (b) alone 0.4 ppm
  pest or weed control at 0.4 ppm: 0%
[1]; read-out: TLB Obsd (disease control rating), Table A, component (b) alone 2 ppm
  pest or weed control at 2 ppm: 0%
[1]; read-out: TLB Obsd (disease control rating), Table A, component (b) alone 10 ppm
  pest or weed control at 10 ppm: 9%
[1]; read-out: TLB Obsd (disease control rating), Table A, component (b) alone 40 ppm
  pest or weed control at 40 ppm: 17%
[1]; read-out: TLB Obsd (disease control rating), Table A, component (b) alone 200 ppm
  pest or weed control at 200 ppm: 17%
[1]; [3]
  pest or weed control at 0.4 ppm: 0%
[1]; [4]
  pest or weed control at 2 ppm: 22%
[1]; [5]
  pest or weed control at 10 ppm: 7%
[1]; [6]
  pest or weed control at 40 ppm: 15%
[1]; read-out: TLB Obsd, component (b) alone, 200 ppm
  pest or weed control at 200 ppm: 7%
[2]; Table A, component (b) alone 0.4 ppm, read-out: CDM Obsd (disease control rating)
  pest or weed control at 0.4 ppm: 47%
[2]; Table A, component (b) alone 2 ppm, read-out: CDM Obsd (disease control rating)
  pest or weed control at 2 ppm: 47%
[2]; Table A, component (b) alone 10 ppm, read-out: CDM Obsd (disease control rating)
  pest or weed control at 10 ppm: 47%
[2]; Table A, component (b) alone 40 ppm, read-out: CDM Obsd (disease control rating)
  pest or weed control at 40 ppm: 47%
[2]; Table A, component (b) alone 200 ppm, read-out: CDM Obsd (disease control rating)
  pest or weed control at 200 ppm: 47%
[2]; Table G, component (b) alone at 0.4 ppm, read-out: CDM Obsd
  pest or weed control at 0.4 ppm: 43%
[2]; Table G, component (b) alone at 2 ppm, read-out: CDM Obsd
  pest or weed control at 2 ppm: 33%
[2]; Table G, component (b) alone at 10 ppm, read-out: CDM Obsd
  pest or weed control at 10 ppm: 26%
[2]; Table G, component (b) alone at 40 ppm, read-out: CDM Obsd
  pest or weed control at 40 ppm: 26%
[2]; Table G, component (b) alone at 200 ppm, read-out: CDM Obsd
  pest or weed control at 200 ppm: 47%
[2]; [7]
  pest or weed control at 0.4 ppm: 0%
[2]; [8]
  pest or weed control at 2 ppm: 0%
[2]; [9]
  pest or weed control at 10 ppm: 0%
[2]; [10]
  pest or weed control at 40 ppm: 0%
[2]; component (b) alone, 200 ppm, read-out: CDM Obsd
  pest or weed control at 200 ppm: 16%

## COC(=O)N(OC)c1ccccc1COc1ccn(-c2ccc(Cl)cc2)n1 [pyraclostrobin]
[1]; read-out: TLB Obsd (observed effect, tomato late blight), component (b) alone, 0.08 ppm
  pest or weed control at 0.08 ppm: 15%
[1]; read-out: TLB Obsd (observed effect, tomato late blight), component (b) alone, 0.4 ppm
  pest or weed control at 0.4 ppm: 35%
[1]; [11]
  pest or weed control at 2 ppm: 63%
[1]; [12]
  pest or weed control at 10 ppm: 90%
[1]; [13]
  pest or weed control at 40 ppm: 94%
[1]; read-out: TLB Obsd, Table D, component (b) alone at 0.08 ppm
  pest or weed control at 0.08 ppm: 26%
[1]; read-out: TLB Obsd, Table D, component (b) alone at 0.4 ppm
  pest or weed control at 0.4 ppm: 40%
[1]; read-out: TLB Obsd, Table D, component (b) alone at 2 ppm
  pest or weed control at 2 ppm: 78%
[1]; [14]
  pest or weed control at 10 ppm: 85%
[1]; [15]
  pest or weed control at 40 ppm: 95%
[2]; Table D, component (b) alone at 0.08 ppm, read-out: CDM Obsd
  pest or weed control at 0.08 ppm: 47%
[2]; Table D, component (b) alone at 0.4 ppm, read-out: CDM Obsd
  pest or weed control at 0.4 ppm: 47%
[2]; Table D, component (b) alone at 2 ppm, read-out: CDM Obsd
  pest or weed control at 2 ppm: 98%
[2]; [16]
  pest or weed control at 10 ppm: 100%
[2]; [17]
  pest or weed control at 40 ppm: 100%
[2]; read-out: CDM Obsd
  pest or weed control at 0.08 µg/mL: 47%
  pest or weed control at 0.4 µg/mL: 47%
  pest or weed control at 2 µg/mL: 57%
  pest or weed control at 10 µg/mL: 100%
  pest or weed control at 40 µg/mL: 100%
[2]; component (b) alone, 0.08 ppm, read-out: CDM Obsd (observed effect, cucumber downy mildew)
  pest or weed control at 0.08 ppm: 0%
[2]; component (b) alone, 0.4 ppm, read-out: CDM Obsd (observed effect, cucumber downy mildew)
  pest or weed control at 0.4 ppm: 0%
[2]; [18]
  pest or weed control at 2 ppm: 68%
[2]; [19]
  pest or weed control at 10 ppm: 100%
[2]; [20]
  pest or weed control at 40 ppm: 100%

## CSC1=N[C@@](C)(c2ccccc2)C(=O)N1Nc1ccccc1 [fenamidone]
[1]; read-out: TLB Obsd, component (b) alone, 0.08 ppm
  pest or weed control at 0.08 ppm: 22%
[1]; [3]
  pest or weed control at 0.4 ppm: 30%
[1]; [4]
  pest or weed control at 2 ppm: 99%
[1]; [5]
  pest or weed control at 10 ppm: 100%
[1]; [6]
  pest or weed control at 40 ppm: 100%
[2]; read-out: CDM Obsd
  pest or weed control at 0.08 µg/mL: 65%
  pest or weed control at 0.4 µg/mL: 47%
  pest or weed control at 2 µg/mL: 82%
  pest or weed control at 10 µg/mL: 100%
  pest or weed control at 40 µg/mL: 100%
[2]; component (b) alone, 0.08 ppm, read-out: CDM Obsd
  pest or weed control at 0.08 ppm: 0%
[2]; [7]
  pest or weed control at 0.4 ppm: 0%
[2]; [8]
  pest or weed control at 2 ppm: 85%
[2]; [9]
  pest or weed control at 10 ppm: 100%
[2]; [10]
  pest or weed control at 40 ppm: 100%

## O=C1c2ccccc2C(=O)N1SC(Cl)(Cl)Cl [folpet]
[1]; read-out: TLB Obsd (disease control rating), Table C, component (b) alone 0.4 ppm
  pest or weed control at 0.4 ppm: 0%
[1]; read-out: TLB Obsd (disease control rating), Table C, component (b) alone 2 ppm
  pest or weed control at 2 ppm: 9%
[1]; read-out: TLB Obsd (disease control rating), Table C, component (b) alone 10 ppm
  pest or weed control at 10 ppm: 9%
[1]; read-out: TLB Obsd (disease control rating), Table C, component (b) alone 40 ppm
  pest or weed control at 40 ppm: 24%
[1]; read-out: TLB Obsd (disease control rating), Table C, component (b) alone 200 ppm
  pest or weed control at 200 ppm: 75%
[1]; read-out: TLB Obsd (observed effect, tomato late blight), component (b) alone, 0.04 ppm
  pest or weed control at 0.04 ppm: 0%
[1]; [11]
  pest or weed control at 2 ppm: 8%
[1]; [12]
  pest or weed control at 10 ppm: 31%
[1]; [13]
  pest or weed control at 40 ppm: 46%
[1]; [21]
  pest or weed control at 200 ppm: 93%
[2]; Table C, component (b) alone 0.4 ppm, read-out: CDM Obsd (disease control rating)
  pest or weed control at 0.4 ppm: 47%
[2]; Table C, component (b) alone 2 ppm, read-out: CDM Obsd (disease control rating)
  pest or weed control at 2 ppm: 47%
[2]; Table C, component (b) alone 10 ppm, read-out: CDM Obsd (disease control rating)
  pest or weed control at 10 ppm: 47%
[2]; Table C, component (b) alone 40 ppm, read-out: CDM Obsd (disease control rating)
  pest or weed control at 40 ppm: 92%
[2]; Table C, component (b) alone 200 ppm, read-out: CDM Obsd (disease control rating)
  pest or weed control at 200 ppm: 95%
[2]; read-out: CDM Obsd
  pest or weed control at 0.4 µg/mL: 47%
  pest or weed control at 2 µg/mL: 47%
  pest or weed control at 10 µg/mL: 47%
  pest or weed control at 40 µg/mL: 47%
  pest or weed control at 200 µg/mL: 88%
[2]; component (b) alone, 0.04 ppm, read-out: CDM Obsd (observed effect, cucumber downy mildew)
  pest or weed control at 0.04 ppm: 0%
[2]; [18]
  pest or weed control at 2 ppm: 0%
[2]; [19]
  pest or weed control at 10 ppm: 44%
[2]; [20]
  pest or weed control at 40 ppm: 74%
[2]; [22]
  pest or weed control at 200 ppm: 87%

## CCCOC(=O)NCCCN(C)C [propamocarb]
[1]; [12]
  pest or weed control at 10 ppm: 0%
[1]; [13]
  pest or weed control at 40 ppm: 0%
[1]; [21]
  pest or weed control at 200 ppm: 0%
[1]; read-out: TLB Obsd (observed effect, tomato late blight), component (b) alone, 1000 ppm
  pest or weed control at 1000 ppm: 38%
[1]; read-out: TLB Obsd (observed effect, tomato late blight), component (b) alone, 5000 ppm
  pest or weed control at 5000 ppm: 92%
[1]; [14]
  pest or weed control at 10 ppm: 6%
[1]; [15]
  pest or weed control at 40 ppm: 6%
[1]; read-out: TLB Obsd, Table D, component (b) alone at 200 ppm
  pest or weed control at 200 ppm: 19%
[1]; read-out: TLB Obsd, Table D, component (b) alone at 1000 ppm
  pest or weed control at 1000 ppm: 57%
[1]; read-out: TLB Obsd, Table D, component (b) alone at 5000 ppm
  pest or weed control at 5000 ppm: 77%
[2]; [16]
  pest or weed control at 10 ppm: 47%
[2]; [17]
  pest or weed control at 40 ppm: 47%
[2]; Table D, component (b) alone at 200 ppm, read-out: CDM Obsd
  pest or weed control at 200 ppm: 58%
[2]; Table D, component (b) alone at 1000 ppm, read-out: CDM Obsd
  pest or weed control at 1000 ppm: 76%
[2]; Table D, component (b) alone at 5000 ppm, read-out: CDM Obsd
  pest or weed control at 5000 ppm: 98%
[2]; read-out: CDM Obsd
  pest or weed control at 10 µg/mL: 47%
  pest or weed control at 40 µg/mL: 47%
  pest or weed control at 200 µg/mL: 94%
[2]; component (b) alone 1000 ppm (Compound 1 0 ppm), read-out: CDM Obsd
  pest or weed control at 1000 µg/mL: 100%
[2]; component (b) alone 5000 ppm (Compound 1 0 ppm), read-out: CDM Obsd
  pest or weed control at 5000 µg/mL: 100%
[2]; [19]
  pest or weed control at 10 ppm: 46%
[2]; [20]
  pest or weed control at 40 ppm: 31%
[2]; [22]
  pest or weed control at 200 ppm: 86%
[2]; component (b) alone, 1000 ppm, read-out: CDM Obsd (observed effect, cucumber downy mildew)
  pest or weed control at 1000 ppm: 99%
[2]; component (b) alone, 5000 ppm, read-out: CDM Obsd (observed effect, cucumber downy mildew)
  pest or weed control at 5000 ppm: 100%
